Non-standard residues stand in square brackets, D forms with d. Residues, ends and D or L forms follow the SMILES beside them. *: point of attachment. X2 = O=C(CCOCCOCCOCCOCCOCCOCCNC(=S)Nc1ccc2c(c1)C(=O)OC21c2ccc(O)cc2Oc2cc(O)ccc21)Oc1c(F)cc(CN*)cc1F; PEG4 = NCCOCCOCCOCCOCCC(=O)O
Assays:
[1] = tested on: daratumumab; experiment: Absorbance based DAR analysis of FITC conjugation to antibody; format: biochemical; settings: for DAR / DAR Daratumumab / Fold (DAR I-45 over I-9): 25 C
Procedure: (§1) In some embodiments, reaction partners, e.g., compounds of formula R-I or salts thereof ere dissolved in DMSO to 5 mM stock solution.
(§2) In some embodiments, reactions are set up with 300 micrograms of antibody. In some embodiments, various conditions, including various buffers, reagent equivalents, reaction time, reaction temperature and reaction concentrations can be utilized.
As an example, one reaction is 300 microliter reaction with 1 mg/mL of antibody in PBS. Peptide I-45 (1 microliter of 5 mM stock in DMSO, 2.5 molar equivalents relative to daratumumab) was diluted in 284 microliters of PBS buffer (10 mM phosphate, 150 mM sodium chloride, pH 7.4), then 15 microliters of daratumumab (20 mg/mL stock) was added to the reaction mixture followed by incubation at room temperature in the dark. After 4 h reaction buffer was exchanged using Amicon Ultra centrifuge filter (30 KDa MWCO, 0.5 mL volume). First, glycine buffer (100 mM, pH 2.1) was used for buffer exchange to ensure dissociation of target binding moieties after reaction. Then, phosphate buffer saline (pH 7.4) was used for further buffer exchange and storage.
In another example, a reaction is 300 microliter reaction with 1 mg/mL of antibody in borate buffer. Peptide I-44 (1.2 microliter of 5 mM stock in DMSO, 3.0 molar equivalents relative to daratumumab) was diluted in 284 microliters of Borate buffer (100 mM borate, pH 8.3), then 15 microliters of daratumumab (20 mg/mL stock) was added to the reaction mixture followed by incubation at room temperature in the dark. After 20 h reaction buffer was exchanged using Amicon Ultra centrifuge filter (30 KDa MWCO, 0.5 mL volume). First, glycine buffer (100 mM, pH 2.1) was used for buffer exchange to ensure dissociation of target binding moieties after reaction. Then, phosphate buffer saline (10 mM phosphate, 150 mM sodium chloride, pH 7.4) was used for further buffer exchange and storage.
(§3) In some embodiments, a useful technology is absorbance based DAR analysis. DAR (ratio of moieties of interest and target agent moieties (e.g., antibody agent moieties) was calculated for various antibody conjugates, e.g., in various reagent screening/assessment methods. Various agents comprising target binding moieties were assessed for conjugation efficiency as reaction partners with targets, e.g. protein agents such as antibody agents, compared to reagents with the same reactive groups but without target binding moieties. In various ratio determination ‘Drug’/moiety of interest is fluorescein isothiocyanate (FITC) dye conjugated to target agents, e.g., antibody agents. DAR molar ratio is defined as a ratio of moles of drug/moiety of interest to moles of target agent/antibody. Molarity is calculated from absorbance of FITC (A485) and antibody (A280) of conjugated product, and extinction coefficients of FITC and antibody using Beer-Lambert law. Correction coefficient 0.35 was used to correct for absorbance of FITC at 280 nm. Biotek Synergy H1 microplate reader and Take3 microvolume plate were used for absorbance measurements. Concentration of antibody was at least 3 mg/mL for optimal signal-to-noise in the readings. Certain target binding moieties that can provide higher DAR compared to equivalent controls (absence of target binding moieties) were selected as hits for further analysis. Certain assessment data were provided below as examples.

[2] = tested on: Cetuximab; experiment: as above; format: biochemical; settings: 2.5 M eq reagent, phosphate buffer saline pH 7.4, 4 h, 25 C; Drug = FITC
Procedure: as §1, §2, §3
Reactions were set up with antibodies using 2.5 M eq of indicated reagent in phosphate buffer saline pH 7.4 for 4 h at 25° C. DAR is Drug to antibody ratio, in this case “Drug” is FITC and DAR is measured using FITC absorbance.

[3] = 2.5 M eq reagent, phosphate buffer saline pH 7.4, 4 h, Drug = FITC
[4] = antibody 1 mg/mL, 2.5 M eq, 20 h, PBS pH 7.4
[5] = antibody 1 mg/mL, 3 M eq, 20 h, PBS pH 7.4
[6] = antibody 1 mg/mL, 3.5 M eq, 20 h, PBS pH 7.4
[7] = antibody 4 mg/mL, 2.5 M eq, 20 h, PBS pH 7.4
[8] = antibody 4 mg/mL, 3 M eq, 20 h, PBS pH 7.4
[9] = antibody 4 mg/mL, 3.5 M eq, 20 h, PBS pH 7.4

CCNC(=O)c1ccc(OC(=O)CCOCCOCCOCCOCCOCCOCCNC(=S)Nc2ccc3c(c2)C(=O)OC32c3ccc(O)cc3Oc3cc(O)ccc32)c(F)c1 [Compound I-18]
DAR [1, 3]: 0.05 | DAR Daratumumab [1, 3]: 0.05 | DAR ([1]; 2.5 M eq, 4 h, Acetate pH 6.2): 0.08 | DAR ([1]; 2.5 M eq, 4 h, Borate pH 8.3): 0.35 | DAR ([1]; 2.5 M eq, 4 h, PBS pH 7.4): 0.05 | DAR ([1]; 5 M eq reagent, phosphate buffer saline pH 7.4, 4 h, Drug = FITC): 0.15 | DAR ([1]; 5 M eq, 4 h, Acetate pH 6.2): 0.14 | DAR ([1]; 5 M eq, 4 h, Borate pH 8.3): 0.42 | DAR ([1]; 5 M eq, 4 h, PBS pH 7.4): 0.08 | DAR ([1]; 10 M eq, 2 h, Acetate pH 6.2): 0.12 | DAR ([1]; 10 M eq, 4 h, Borate pH 8.3): 0.77 | DAR ([1]; 10 M eq, 4 h, PBS pH 7.4): 0.15 | DAR Cetuximab [2]: 0.04

CC(=O)NCC(=O)N[C@@H](CO)C(=O)N[C@@H](Cc1ccc(O)cc1)C(=O)N[C@@H](Cc1c[nH]c2ccccc12)C(=O)N[C@@H](Cc1ccc(O)cc1)C(=O)N[C@@H](CC(=O)O)C(=O)N[C@H](C(=O)N[C@@H](Cc1c[nH]c2ccccc12)C(=O)N[C@@H](Cc1ccccc1)C(=O)NCCOCCOCCOCCOCCC(=O)NCc1cc(F)c(OC(=O)CCOCCOCCOCCOCCOCCOCCNC(=S)Nc2ccc3c(c2)C(=O)OC32c3ccc(O)cc3Oc3cc(O)ccc32)c(F)c1)C(C)C [Compound I-45] (Ac-GSYWYDVWF[PEG4]-X2)
DAR [1, 3]: 0.64 | DAR Daratumumab [1, 3]: 0.64 | DAR [1, 4]: 0.90 | Fold (DAR I-45 over I-9) [1, 4]: 4.78 | DAR [1, 5]: 0.96 | Fold (DAR I-45 over I-9) [1, 5]: 5.31 | DAR [1, 6]: 1.06 | Fold (DAR I-45 over I-9) [1, 6]: 4.39 | DAR [1, 7]: 1.04 | Fold (DAR I-45 over I-9) [1, 7]: 2.81 | DAR [1, 8]: 1.09 | Fold (DAR I-45 over I-9) [1, 8]: 2.23 | DAR [1, 9]: 1.06 | Fold (DAR I-45 over I-9) [1, 9]: 2.40 | FITC DAR ([1]; sample (a) of FIG. 12 / FIG. 13): 0.43 | DAR Cetuximab [2]: 0.70

— patent US20230128688A1, “DIRECTED CONJUGATION TECHNOLOGIES” (KLEO PHARMACEUTICALS, INC., priority 2019, published 2023)
